Measured values taken from publication PMC7006505, “Chemical biology tools for probing transcytosis at the blood–brain barrier” (Chemical Science, 2019).

Assays:
[1] = target: T1, extracellular subunit of TfR recombinant human protein, N-His Tag (Homo sapiens, UniProt P02786); assay: TfR binding ELISA (FAM-labelled shuttles on TfR-coated plates); conditions: plates coated with 1 µg/ml TfR, 1 h at room temp in PBS, anti-FAM HRP antibody (streptavidin peroxidase for Tf-biotin), absorption 450 nm, read-out: apparent binding affinity (EC50) to TfR
T1 construct: extracellular subunit of TfR; purchased Life Technologies
T1 sequence (P02786 89-760 limits assumed): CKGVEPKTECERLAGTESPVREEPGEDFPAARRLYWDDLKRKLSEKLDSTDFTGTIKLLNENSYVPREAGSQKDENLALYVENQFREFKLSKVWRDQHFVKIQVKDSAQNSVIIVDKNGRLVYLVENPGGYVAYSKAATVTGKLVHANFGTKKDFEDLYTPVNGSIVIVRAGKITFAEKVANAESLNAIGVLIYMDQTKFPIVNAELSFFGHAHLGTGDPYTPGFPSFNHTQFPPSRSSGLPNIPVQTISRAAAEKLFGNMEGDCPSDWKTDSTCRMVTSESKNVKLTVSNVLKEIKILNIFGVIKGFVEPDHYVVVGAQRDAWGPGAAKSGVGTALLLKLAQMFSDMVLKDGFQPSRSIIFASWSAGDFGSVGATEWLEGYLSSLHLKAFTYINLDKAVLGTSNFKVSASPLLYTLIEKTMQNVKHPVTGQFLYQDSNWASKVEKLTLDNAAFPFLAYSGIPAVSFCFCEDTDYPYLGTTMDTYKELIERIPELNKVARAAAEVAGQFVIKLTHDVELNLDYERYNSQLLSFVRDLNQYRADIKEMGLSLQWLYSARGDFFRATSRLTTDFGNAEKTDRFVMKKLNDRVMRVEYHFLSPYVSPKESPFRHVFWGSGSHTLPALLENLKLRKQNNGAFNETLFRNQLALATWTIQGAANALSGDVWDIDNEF
Method: To evaluate functionality of the conjugated peptides, in vitro analyses were performed. TfR binding was assessed through an ELISA format, whereby FAM-conjugated shuttles were serially diluted and added to plates that were coated with TfR protein. FAM-labelled vehicles were detected by an anti-FAM HRP-conjugated antibody.
The procedure was performed at room temp on a shaking platform using PBS-Tween (0.05%) for the wash steps. Nickel coated clear 96-well plates (Pierce) was coated overnight with 1 µg/ml of the extracellular subunit of TfR recombinant human protein, N-His Tag (Life Technologies) in 0.5 M Carbonate buffer. The plates were washed (5 × 150 µL) and blocked for 1 h with PBS containing 1% BSA. 100 µL of the compound dilutions in PBS were transferred to the plate and incubated for 1 h at room temp, after which time the plates were washed (5 × 150 µL). A Goat anti-FAM peroxidase labelled antibody (Abcam, 1:100 000) was added to the wells and incubated for 30 min. Following 6 washes, 50 µL of TMB Substrate Solution (Sigma) was added per well and incubated for a further 30 min. After addition of 50 µL of 2 M sulphuric acid to each well , receptor complexes were detected by measuring absorption at 450 nm. The procedure for determining the binding affinity of biotin labelled Tf (Sigma) was similar except streptavidin peroxidas e (ThermoFisher Scientific) (1:20 000) was used to measure the Tf -receptor complex.
Imaging and Immunochemistry
Colocalis ation of delivery scaffolds with LAMP1 and Tf -A647 bEND.3 cells were seeded at a density of 1 x 10^4 cells/we ll in 8-well glass plates (ibidi ) coated with rat tail collagen. After 3 days at 100 % confluence, cells were washed with PBS (3 × 180 µL), and co-incubated with brain delivery scaffolds (5 µM) and Tf-A647 (50 µg/ml) at 37 °C for 2 h in FluoroBrite DMEM media (Thermofisher). Cells were washed with PBS (3 × 180 µL), then fixed with 4 % paraformaldehyde for 15 min at room temperature. […]

TfR = conditions: micromolar affinity; read-out: affinity towards the receptor (TfR); cited from earlier work
Description: To enable targeted brain delivery, we chose to functionalise our scaffold with established ligands that engage the transferrin receptor (TfR) and low-density lipoprotein-receptor related protein (LRP1). The relative abundance of these receptors on brain endothelial, alongside their high transport capacity, made them ideal targets for RMT mediated delivery and both have been actively explored in research.[8],[14]–[16]

| Molecule | EC50 [1] [nM] | Kd (TfR) [nM] |
| --- | --- | --- |
| CC[C@H](C)[C@H](NC(=O)[C@H](C)NC(=O)[C@H](Cc1c[nH]cn1)NC(=O)[C@@H](N)CCCCn1cc(C[C@H](NC(=O)[C@H](CCCNC(=N)N)NC(=O)[C@@H](NC(=O)[C@@H]2CCCN2C(=O)[C@@H]2CCCN2C(=O)[C@@H]2CCCN2C(=O)[C@H](CC(C)C)NC(=O)[C@H](CCCNC(=N)N)NC(=O)[C@@H](NC(=O)[C@@H]2CCCN2C(=O)[C@@H]2CCCN2C(=O)[C@@H]2CCCN2C(=O)[C@H](Cc2cn(CCCC[C@H](N)C(=O)N[C@@H](Cc3c[nH]cn3)C(=O)N[C@@H](C)C(=O)N[C@H](C(=O)N[C@@H](Cc3ccc(O)cc3)C(=O)N3CCC[C@H]3C(=O)N[C@@H](CCCNC(=N)N)C(=O)N[C@@H](Cc3c[nH]cn3)C(N)=O)[C@@H](C)CC)nn2)NC(=O)[C@H](CCCNC(=N)N)NC(=O)[C@@H](NC(=O)c2ccc3c(c2)C(=O)OC32c3ccc(O)cc3Oc3cc(O)ccc32)C(C)C)C(C)C)C(C)C)C(=O)N2CCC[C@H]2C(=O)N2CCC[C@H]2C(=O)N2CCC[C@H]2C(N)=O)nn1)C(=O)N[C@@H](Cc1ccc(O)cc1)C(=O)N1CCC[C@H]1C(=O)N[C@@H](CCCNC(=N)N)C(=O)N[C@@H](Cc1c[nH]cn1)C(N)=O [PPII(L3X;L15X)TfRL2] | 11.8 ± 1.11 |  |
| Tf-biotin: biotin labelled transferrin (Sigma) [reference compound] | 20.9 ± 2.1 |  |
| HAIYPRH [TfRL2] |  | 440000 |
| CC[C@H](C)[C@H](NC(=O)[C@H](C)NC(=O)[C@H](Cc1c[nH]cn1)NC(=O)[C@@H](N)CCCCn1cc(C[C@H](NC(=O)[C@@H]2CCCN2C(=O)[C@@H]2CCCN2C(=O)[C@@H]2CCCN2C(=O)[C@H](CC(C)C)NC(=O)[C@H](CCCNC(=N)N)NC(=O)[C@@H](NC(=O)[C@@H]2CCCN2C(=O)[C@@H]2CCCN2C(=O)[C@@H]2CCCN2C(=O)[C@H](Cc2cn(CCCC[C@H](N)C(=O)N[C@@H](Cc3c[nH]cn3)C(=O)N[C@@H](C)C(=O)N[C@H](C(=O)N[C@@H](Cc3ccc(O)cc3)C(=O)N3CCC[C@H]3C(=O)N[C@@H](CCCNC(=N)N)C(=O)N[C@@H](Cc3c[nH]cn3)C(N)=O)[C@@H](C)CC)nn2)NC(=O)[C@H](CCCNC(=N)N)NC(=O)[C@@H](NC(=O)c2ccc3c(c2)C(=O)OC32c3ccc(O)cc3Oc3cc(O)ccc32)C(C)C)C(C)C)C(=O)N[C@@H](CCCNC(=N)N)C(=O)N[C@@H](CC(C)C)C(=O)N2CCC[C@H]2C(=O)N2CCC[C@H]2C(=O)N2CCC[C@H]2C(N)=O)nn1)C(=O)N[C@@H](Cc1ccc(O)cc1)C(=O)N1CCC[C@H]1C(=O)N[C@@H](CCCNC(=N)N)C(=O)N[C@@H](Cc1c[nH]cn1)C(N)=O [PPII(L3X;V13X)TfRL2] | 12.7 ± 1.37 |  |
